Patent publication US7256190B2, “Thiazole compounds useful as inhibitors of protein kinase” (Vertex Pharmaceuticals Incorporated, priority 2001, dated 2007)

What was measured:
Format in all cases: biochemical
[1] = molecular target: T1, Aurora2 (Homo sapiens, UniProt O14965); assay: Aurora2 inhibition assay (coupled enzyme assay); conditions: 800 μM peptide LRRASLG, 70 nM Aurora2, 30° C.
T1 sequence (O14965 1-403): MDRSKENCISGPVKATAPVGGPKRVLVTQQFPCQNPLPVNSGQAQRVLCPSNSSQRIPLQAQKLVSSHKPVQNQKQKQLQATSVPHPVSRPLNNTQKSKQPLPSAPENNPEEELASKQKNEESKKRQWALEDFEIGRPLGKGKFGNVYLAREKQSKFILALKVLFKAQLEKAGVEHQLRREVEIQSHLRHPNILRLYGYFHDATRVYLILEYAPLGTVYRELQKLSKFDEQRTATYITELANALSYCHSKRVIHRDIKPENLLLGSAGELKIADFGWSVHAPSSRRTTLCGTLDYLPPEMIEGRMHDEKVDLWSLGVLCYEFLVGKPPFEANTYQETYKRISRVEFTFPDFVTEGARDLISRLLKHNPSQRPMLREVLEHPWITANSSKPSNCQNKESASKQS
Method: Compounds are screened in the following manner for their ability to inhibit Aurora2 using a standard coupled enzyme assay (Fox et al (1998). Protein Sci 7, 2246). To an assay stock buffer solution containing 0.1M HEPES 7.5, 10 mM MgCl2, 1 mM DTT, 25 mM NaCl, 2.5 mM prosphoenolpyruvate, […], […] pyruvate kinase, […] lactate dehydrogenase, […], and 800 μM peptide (LRRASLG, American Peptide, Sunnyvale, Calif.) is added a DMSO solution of a compound of the present invention to a final concentration of 30 μM. The resulting mixture is incubated at 30° C. for 10 minutes. The reaction was initiated by the addition of 10 μL of Aurora2 stock solution to give a final concentration of 70 nM in the assay. The rates of reaction are obtained by monitoring absorbance at 340 nm over a 5 minute read time at 30° C. using a BioRad Ultramark plate reader (Hercules, Calif.). The IC50 values are determined from the rate data as a function of inhibitor concentration.
(§1) The compound numbers correspond to the compound numbers in Table 1.

[2] = molecular target: GSK3-β (AA 1-420) (Homo sapiens, UniProt P49841); assay: GSK-3 inhibition assay (coupled enzyme system); conditions: 10 μM ATP, 300 μM peptide, 60 nM GSK-3β, 30° C.
Sequence of GSK3-β (AA 1-420) (P49841 whole entry, the tested form may be a part): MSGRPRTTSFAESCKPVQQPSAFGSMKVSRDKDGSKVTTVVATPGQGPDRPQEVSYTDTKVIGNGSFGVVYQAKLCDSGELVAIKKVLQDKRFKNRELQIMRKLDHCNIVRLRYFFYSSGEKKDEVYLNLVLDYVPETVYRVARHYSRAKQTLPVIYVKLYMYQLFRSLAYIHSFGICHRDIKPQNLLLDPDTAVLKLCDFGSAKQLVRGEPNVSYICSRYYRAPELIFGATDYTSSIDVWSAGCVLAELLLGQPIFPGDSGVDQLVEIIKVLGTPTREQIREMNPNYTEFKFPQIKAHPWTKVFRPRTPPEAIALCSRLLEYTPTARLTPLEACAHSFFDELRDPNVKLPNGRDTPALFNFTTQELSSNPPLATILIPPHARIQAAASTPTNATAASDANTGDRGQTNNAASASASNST
Method: Compounds were screened for their ability to inhibit GSK3-β (AA 1-420) activity using a standard coupled enzyme system (Fox et al. (1998) Protein Sci. 7, 2249). Reactions were carried out in a solution containing 100 mM HEPES (pH 7.5), 10 mM MgCl2, 25 mM NaCl, 300 μM NADH, 1 mM DTT and 1.5% DMSO. Final substrate concentrations in the assay were 10 μM ATP (Sigma Chemicals, St Louis, Mo.) and 300 μM peptide (HSSPHQS(PO3H2)EDEEE, American Peptide, Sunnyvale, Calif.). Reactions were carried out at 30° C. and 60 nM GSK-3β. Final concentrations of the components of the coupled enzyme system were 2.5 mM phosphoenolpyruvate, 300μM NADH, 30 μg/ml pyruvate kinase and 10 μg/ml lactate dehydrogenase.
An assay stock buffer solution was prepared containing all of the reagents listed above with the exception of ATP and the test compound of interest. 59 μl of the test reaction was placed in a 96 well ½-diameter plate (Corning, Corning, N.Y.) then treated with 1 μl of a 2 mM DMSO stock containing the test compound (final compound concentration 30 μM). The plate was incubated for ˜10 minutes at 30° C. then the reaction initiated by addition of 7 μl of ATP (final concentration 10 μM). Rates of reaction were obtained using a Molecular Devices Spectramax plate reader (Sunnyvale, Calif.) over a 5 minute read time at 30° C.
as §1

[3] = molecular target: Syk (Homo sapiens, UniProt P43405); assay: Syk inhibition assay (coupled enzyme assay); conditions: 200 μM ATP, 4 μM poly Gly-Tyr peptide, 30° C.
Method: Reactions were carried out in 100 mM HEPES pH 7.5, 10 mM MgCl2, 25 mM NaCl, 1 mM DTT and 1.5% DMSO. Final substrate .concentrations in the assay were 200 μM ATP (Sigmachemical Co.) and 4 μM poly Gly-Tyr peptide (Sigma Chemical Co.). Assays were carried out at 30° C. and 200 nM Syk. Final concentrations of the components of the coupled enzyme system were 2.5 mM phosphoenolpyruvate, 300 μM NADH, 30 μg/ml pyruvate kinase and 10 μg/ml lactate dehydrogenase.
An assay stock buffer solution was prepared containing all of the reagents listed above, with the exception of Syk, DTT and the test compound of interest. 56 μl of the test reaction was placed in a 96 well plate followed by the addition of 1 μl of 2 mM DMSO stock containing the test compound (final compound concentration 30 μM). […] Rates of reaction were obtained using a BioRad Ultramark plate reader (Hercules, Calif.) over a 5 minute read time at 30° C.
as §1

IC50 [1]	Ki [2]	IC50 [3]	SMILES
500 to 2000 nM	< 100 nM	< 500 nM	FC(F)(F)c1cccc(Nc2nccc(-c3nccs3)n2)c1 [Compound I-37]
< 500 nM	< 100 nM	< 500 nM	Nc1ccccc1COc1cccc(Nc2nccc(-c3nccs3)n2)c1 [Compound I-38]
> 2000 nM	< 100 nM	> 2000 nM	Fc1ccc(Nc2nccc(-c3nccs3)n2)cc1 [Compound I-43]
> 2000 nM	< 100 nM	> 2000 nM	Clc1ccc(Nc2nccc(-c3nccs3)n2)cc1 [Compound I-46]
500 to 2000 nM	< 100 nM	> 2000 nM	Fc1ccc(Nc2nccc(-c3nccs3)n2)cc1F [Compound I-49]
> 2000 nM	< 100 nM	> 2000 nM	c1ccc2cc(Nc3nccc(-c4nccs4)n3)ccc2c1 [Compound I-52]
< 500 nM	< 100 nM	< 500 nM	NS(=O)(=O)c1ccc(Nc2nccc(-c3nccs3)n2)cc1 [Compound I-55]
500 to 2000 nM	–	500 to 2000 nM	c1cc(Nc2nccc(-c3nccs3)n2)cc(Oc2ccncc2)c1 [Compound I-56]
> 2000 nM	< 100 nM	> 2000 nM	Fc1cc(Nc2nccc(-c3nccs3)n2)cc(F)c1F [Compound I-58]
> 2000 nM	–	> 2000 nM	O=[N+]([O-])c1cccc(Oc2cccc(Nc3nccc(-c4nccs4)n3)c2)c1 [Compound I-59]
> 2000 nM	> 1000 nM	> 2000 nM	Clc1cccc(Cl)c1Nc1nccc(-c2nccs2)n1 [Compound I-61]
500 to 2000 nM	–	< 500 nM	Nc1cccc(Oc2cccc(Nc3nccc(-c4nccs4)n3)c2)c1 [Compound I-62]
> 2000 nM	> 1000 nM	> 2000 nM	Fc1cccc(F)c1Nc1nccc(-c2nccs2)n1 [Compound I-64]
< 500 nM	100 to 1000 nM	< 500 nM	Cc1ccc(Nc2nccc(-c3nccs3)n2)cc1 [Compound I-67]
< 500 nM	< 100 nM	< 500 nM	Cc1cc(C)cc(Nc2nccc(-c3nccs3)n2)c1 [Compound I-73]
> 2000 nM	< 100 nM	> 2000 nM	c1cc(Nc2nccc(-c3nccs3)n2)cc(OCC2CCCCC2)c1 [Compound I-76]
> 2000 nM	< 100 nM	> 2000 nM	COC(=O)c1ccc(COc2cccc(Nc3nccc(-c4nccs4)n3)c2)cc1 [Compound I-82]
500 to 2000 nM	< 100 nM	> 2000 nM	Clc1ccccc1COc1cccc(Nc2nccc(-c3nccs3)n2)c1 [Compound I-88]
< 500 nM	< 100 nM	< 500 nM	Fc1cccc(F)c1COc1cccc(Nc2nccc(-c3nccs3)n2)c1 [Compound I-94]
> 2000 nM	< 100 nM	> 2000 nM	FC(F)(F)c1cccc(COc2cccc(Nc3nccc(-c4nccs4)n3)c2)c1 [Compound I-106]
> 2000 nM	< 100 nM	> 2000 nM	Fc1ccc(COc2cccc(Nc3nccc(-c4nccs4)n3)c2)cc1 [Compound I-109]
> 2000 nM	< 100 nM	> 2000 nM	Clc1cccc(COc2cccc(Nc3nccc(-c4nccs4)n3)c2)c1Cl [Compound I-112]

Continued, molecule first:

SMILES	IC50 [1]	Ki [2]	IC50 [3]
Clc1ccc(COc2cccc(Nc3nccc(-c4nccs4)n3)c2)cc1Cl [Compound I-2]	> 2000 nM	> 1000 nM	> 2000 nM
c1ccc(Oc2cccc(Nc3nccc(-c4nccs4)n3)c2)cc1 [Compound I-4]	500 to 2000 nM	< 100 nM	500 to 2000 nM
CS(=O)(=O)c1ccc(COc2cccc(Nc3nccc(-c4nccs4)n3)c2)cc1 [Compound I-5]	> 2000 nM	< 100 nM	< 500 nM
c1cc(Nc2nccc(-c3nccs3)n2)cc(OCc2ccncc2)c1 [Compound I-8]	< 500 nM	< 100 nM	> 2000 nM
Oc1cccc(Nc2nccc(-c3nccs3)n2)c1 [Compound I-11]	< 500 nM	< 100 nM	< 500 nM
Nc1cccc(COc2cccc(Nc3nccc(-c4nccs4)n3)c2)c1 [Compound I-14]	500 to 2000 nM	< 100 nM	500 to 2000 nM
O=[N+]([O-])c1cccc(Nc2nccc(-c3nccs3)n2)c1 [Compound I-16]	< 500 nM	> 1000 nM	500 to 2000 nM
c1cc(Nc2nccc(-c3nccs3)n2)cc(OCc2ccc3c(c2)OCO3)c1 [Compound I-17]	< 500 nM	< 100 nM	< 500 nM
Fc1cccc(Nc2nccc(-c3nccs3)n2)c1 [Compound I-19]	500 to 2000 nM	< 100 nM	500 to 2000 nM
Clc1cccc(Nc2nccc(-c3nccs3)n2)c1 [Compound I-22]	< 500 nM	< 100 nM	< 500 nM
c1cncc(COc2cccc(Nc3nccc(-c4nccs4)n3)c2)c1 [Compound I-23]	< 500 nM	< 100 nM	< 500 nM
COc1cccc(Nc2nccc(-c3nccs3)n2)c1 [Compound I-25]	500 to 2000 nM	< 100 nM	< 500 nM
c1cc(Nc2nccc(-c3nccs3)n2)cc(OCCn2cccc2)c1 [Compound I-29]	< 500 nM	< 100 nM	< 500 nM
Ic1cccc(Nc2nccc(-c3nccs3)n2)c1 [Compound I-31]	< 500 nM	< 100 nM	< 500 nM
Brc1cccc(Nc2nccc(-c3nccs3)n2)c1 [Compound I-34]	< 500 nM	< 100 nM	< 500 nM
O=[N+]([O-])c1ccccc1COc1cccc(Nc2nccc(-c3nccs3)n2)c1 [Compound I-35]	> 2000 nM	< 100 nM	> 2000 nM
